Values joined by “and” are separate entries in the source; they are usually repeats but may differ in a detail not shown here. Equal entries are not always repeated. Inconclusive results and toxic doses are left out. Rule as the data show it: active = T/C of 150% or more; inactive = T/C below 125%. Square brackets hold non-standard residues; d marks the D form. Peptide text beside a SMILES is read from it. ξ: configuration not given here. ξF = NC(Cc1ccccc1)C(=O)O
Test system: L1210 leukemia ip in BDF1 mice, survival T/C
Assay: NCI In Vivo Anticancer Drug Screen. Data for tumor model L1210 Leukemia (intraperitoneal) in B6D2F1 (BDF1) mice
Settings: endpoint: mean survival time, higher = longer survival
How it was run: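 Tumor cells were implanted, animals were treated, and survival was followed. The result divides the treated measurement by the vehicle-control measurement.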

[1] = dose: 100.0 mg/kg/injection, schedule: Q01DX001 (ip), vehicle: carboxymethylcellulose (CMC)
[2] = dose: 200.0 mg/kg/injection, schedule: Q01DX001 (ip), vehicle: carboxymethylcellulose (CMC)
[3] = dose: 100.0 mg/kg/injection, schedule: Q04DX003 (ip), vehicle: saline
[4] = dose: 200.0 mg/kg/injection, schedule: Q04DX003 (ip), vehicle: saline
[5] = dose: 50.0 mg/kg/injection, schedule: Q01DX009 (ip), vehicle: saline with Tween-80
[6] = dose: 100.0 mg/kg/injection, schedule: Q04DX003 (ip), vehicle: saline with Tween-80
[7] = dose: 100.0 mg/kg/injection, schedule: Q01DX001 (ip), vehicle: saline with Tween-80
[8] = dose: 200.0 mg/kg/injection, schedule: Q01DX001 (ip), vehicle: saline with Tween-80
[9] = dose: 200.0 mg/kg/injection, schedule: Q01DX009 (ip), vehicle: saline with Tween-80
[10] = dose: 200.0 mg/kg/injection, schedule: Q04DX003 (ip), vehicle: saline with Tween-80
[11] = dose: 100.0 mg/kg/injection, schedule: Q01DX009 (ip), vehicle: Klucel (hydroxypropylcellulose) (HPC)
[12] = dose: 200.0 mg/kg/injection, schedule: Q01DX009 (ip), vehicle: Klucel (hydroxypropylcellulose) (HPC)
[13] = dose: 400.0 mg/kg/injection, schedule: Q01DX009 (ip), vehicle: Klucel (hydroxypropylcellulose) (HPC)
[14] = dose: 400.0 mg/kg/injection, schedule: Q04DX003 (ip), vehicle: saline
[15] = dose: 100.0 mg/kg/injection, schedule: Q01DX001 (ip), vehicle: saline
[16] = dose: 200.0 mg/kg/injection, schedule: Q01DX001 (ip), vehicle: saline
[17] = dose: 400.0 mg/kg/injection, schedule: Q01DX001 (ip), vehicle: saline
[18] = dose: 100.0 mg/kg/injection, schedule: Q01DX009 (ip), vehicle: saline with Tween-80

Measured: T/C

CC(=O)CCNc1ccc(O)c2c1C(=O)c1ccccc1C2=O
inactive: [1] 96 % of control | [2] 89 % of control | dose: 400.0 mg/kg/injection, schedule: Q01DX001 (ip), vehicle: carboxymethylcellulose (CMC) 94 % of control

NC(=O)C(O)C(O)C(O)C(O)C(N)=O (stereo not given)
inactive: dose: 50.0 mg/kg/injection, schedule: Q01DX009 (ip), vehicle: saline 100 % of control | dose: 100.0 mg/kg/injection, schedule: Q01DX009 (ip), vehicle: saline 98 % of control | [3] 92 % of control | dose: 200.0 mg/kg/injection, schedule: Q01DX009 (ip), vehicle: saline 93 % of control | [4] 93 % of control

CC(=O)Nc1cccc2c1C(=O)c1c(c(O)c3ccccc3c1O)C2=O
inactive: dose: 0.12 mg/kg/injection, schedule: Q01DX009 (ip), vehicle: Klucel (hydroxypropylcellulose) (HPC) 101 % of control | dose: 0.25 mg/kg/injection, schedule: Q01DX009 (ip), vehicle: Klucel (hydroxypropylcellulose) (HPC) 100 % of control | dose: 0.25 mg/kg/injection, schedule: Q04DX003 (ip), vehicle: Klucel (hydroxypropylcellulose) (HPC) 97 % of control | dose: 0.5 mg/kg/injection, schedule: Q01DX009 (ip), vehicle: Klucel (hydroxypropylcellulose) (HPC) 102 % of control | dose: 0.5 mg/kg/injection, schedule: Q04DX003 (ip), vehicle: Klucel (hydroxypropylcellulose) (HPC) 97 % of control | dose: 1.0 mg/kg/injection, schedule: Q01DX009 (ip), vehicle: Klucel (hydroxypropylcellulose) (HPC) 97 % of control | dose: 1.0 mg/kg/injection, schedule: Q04DX003 (ip), vehicle: Klucel (hydroxypropylcellulose) (HPC) 97 % of control | dose: 2.0 mg/kg/injection, schedule: Q01DX009 (ip), vehicle: Klucel (hydroxypropylcellulose) (HPC) 98 % of control | dose: 2.0 mg/kg/injection, schedule: Q04DX003 (ip), vehicle: Klucel (hydroxypropylcellulose) (HPC) 101 % of control | dose: 2.0 mg/kg/injection, schedule: Q04DX003 (ip), vehicle: water 95 % of control | dose: 3.12 mg/kg/injection, schedule: Q01DX009 (ip), vehicle: saline with Tween-80 102 % of control | dose: 4.0 mg/kg/injection, schedule: Q01DX009 (ip), vehicle: Klucel (hydroxypropylcellulose) (HPC) 105 % of control | dose: 4.0 mg/kg/injection, schedule: Q04DX003 (ip), vehicle: water 100 % of control | dose: 6.25 mg/kg/injection, schedule: Q01DX009 (ip), vehicle: saline with Tween-80 100 % of control | dose: 8.0 mg/kg/injection, schedule: Q04DX003 (ip), vehicle: water 102 % of control | dose: 12.5 mg/kg/injection, schedule: Q01DX009 (ip), vehicle: saline with Tween-80 97 % of control | dose: 12.5 mg/kg/injection, schedule: Q04DX003 (ip), vehicle: saline with Tween-80 100 % of control | dose: 16.0 mg/kg/injection, schedule: Q04DX003 (ip), vehicle: water 96 % of control and 103 % of control | dose: 25.0 mg/kg/injection, schedule: Q01DX009 (ip), vehicle: saline with Tween-80 102 % of control | dose: 25.0 mg/kg/injection, schedule: Q04DX003 (ip), vehicle: saline with Tween-80 96 % of control | dose: 32.0 mg/kg/injection, schedule: Q04DX003 (ip), vehicle: water 96 % of control | [5] 96 % of control | dose: 50.0 mg/kg/injection, schedule: Q04DX003 (ip), vehicle: saline with Tween-80 103 % of control | dose: 64.0 mg/kg/injection, schedule: Q04DX003 (ip), vehicle: water 97 % of control | [6] 96 % of control

COc1cc2c(cc1OC)/C(=C(\C#N)CCC(C)=O)NCC2
inactive: [1] 92 % of control | [2] 92 % of control

C/C(=C\C(=O)O)c1ccc(-c2ccccc2)cc1
inactive: [7] 96 % of control | [8] 100 % of control | dose: 400.0 mg/kg/injection, schedule: Q01DX001 (ip), vehicle: saline with Tween-80 102 % of control

Fc1ccc(NC(=S)SCc2ccc(Cl)c(Cl)c2)cc1F
inactive: [5] 108 % of control | [6] 102 % of control | [9] 112 % of control | [10] 106 % of control

CCOC(=O)C(C#N)C(C)CC(C)C (stereo not given)
inactive: dose: 50.0 mg/kg/injection, schedule: Q01DX001 (ip), vehicle: saline with Tween-80 102 % of control | [7] 102 % of control | [8] 93 % of control

CCOC(=O)Oc1ccc(OC)cc1
inactive: [11] 111 % of control | [3] 98 % of control | [12] 96 % of control | [4] 112 % of control | [13] 96 % of control | [14] 124 % of control

CCN(C(=O)Nc1cccc2ccccc12)c1ccccc1C
inactive: dose: 100.0 mg/kg/injection, schedule: Q01DX009 (ip), vehicle: gum acacia 100 % of control | dose: 100.0 mg/kg/injection, schedule: Q04DX003 (ip), vehicle: gum acacia 98 % of control | dose: 200.0 mg/kg/injection, schedule: Q01DX009 (ip), vehicle: gum acacia 96 % of control | dose: 200.0 mg/kg/injection, schedule: Q04DX003 (ip), vehicle: gum acacia 98 % of control | dose: 400.0 mg/kg/injection, schedule: Q01DX009 (ip), vehicle: gum acacia 86 % of control | dose: 400.0 mg/kg/injection, schedule: Q04DX003 (ip), vehicle: gum acacia 96 % of control

O=c1[nH]nc(CC(Br)c2ccccc2)o1 (stereo not given)
inactive: [15] 91 % of control | [3] 103 % of control | [16] 90 % of control | [4] 93 % of control | [17] 99 % of control | [14] 105 % of control

O=Cc1nc2ccccc2cc1CCl
inactive: dose: 75.0 mg/kg/injection, schedule: Q01DX001 (ip), vehicle: saline 92 % of control

c1ccc2c(c1)-c1cccc3c1c-2cc1ccccc13
inactive: dose: 100.0 mg/kg/injection, schedule: Q01DX001 (ip), vehicle: other 104 % of control | dose: 200.0 mg/kg/injection, schedule: Q01DX001 (ip), vehicle: other 101 % of control | dose: 400.0 mg/kg/injection, schedule: Q01DX001 (ip), vehicle: other 95 % of control

S=c1[nH]c2ccccc2n1CCc1ccncc1
inactive: [15] 100 % of control | [16] 97 % of control | [17] 95 % of control

Cc1ccc2nc3c(cc(F)c4ccccc43)c(C)c2c1
inactive: [5] 105 % of control | [18] 87 % of control

CCC(COC(=O)c1ccc(N(CC)CC)cc1)NC1CCCCC1 (stereo not given)
inactive: dose: 75.0 mg/kg/injection, schedule: Q01DX001 (ip), vehicle: carboxymethylcellulose (CMC) 95 % of control | dose: 150.0 mg/kg/injection, schedule: Q01DX001 (ip), vehicle: carboxymethylcellulose (CMC) 95 % of control | dose: 300.0 mg/kg/injection, schedule: Q01DX001 (ip), vehicle: carboxymethylcellulose (CMC) 94 % of control

CCC(Cc1c[nH]c2ccccc12)[N+](=O)[O-] (stereo not given)
inactive: [11] 104 % of control | [12] 111 % of control | [13] 113 % of control

NC(Cc1ccccc1)C(=O)NCC(=O)NCC(=O)O (stereo not drawn) (H-[ξF]-Gly-Gly-OH)
inactive: [18] 107 % of control | [6] 102 % of control | [9] 91 % of control | [10] 104 % of control | dose: 400.0 mg/kg/injection, schedule: Q01DX009 (ip), vehicle: saline with Tween-80 89 % of control | dose: 400.0 mg/kg/injection, schedule: Q04DX003 (ip), vehicle: saline with Tween-80 98 % of control

Nc1ncc2c(n1)SCC2
inactive: dose: 5.0 mg/kg/injection, schedule: Q01DX001 (ip), vehicle: saline 104 % of control | dose: 10.0 mg/kg/injection, schedule: Q01DX001 (ip), vehicle: saline 104 % of control | dose: 20.0 mg/kg/injection, schedule: Q01DX001 (ip), vehicle: saline 102 % of control | dose: 40.0 mg/kg/injection, schedule: Q01DX001 (ip), vehicle: saline 102 % of control | dose: 80.0 mg/kg/injection, schedule: Q01DX001 (ip), vehicle: saline 116 % of control

NCCCCCc1ccccc1
inactive: dose: 50.0 mg/kg/injection, schedule: Q04DX003 (ip), vehicle: saline 109 % of control

Reference: PubChem BioAssay AID248 (DTP/NCI, 2004)
